# Results taken from ChEMBL document CHEMBL1671694, “OXA-24 carbapenemase gene flanked by XerC/XerD-like recombination sites in different plasmids from different Acinetobacter species isolated during a nosocomial outbreak” (2010).
# Experiments:
# Acinetobacter baylyi [1] = assay: Antimicrobial activity against Acinetobacter baylyi ADP1 by microdilution method; assay type: functional
# Acinetobacter baylyi [2] = assay: Antimicrobial activity against Acinetobacter baylyi ADP1 harboring pMMCU1 plasmid expressing bla-OXA-24 gene by microdilution method; assay type: functional
Compound,MIC (Acinetobacter baylyi [1]),MIC (Acinetobacter baylyi [2])
C[C@@H](O)[C@H]1C(=O)N2C(C(=O)O)=C(SCCNC=N)C[C@H]12 [IMIPENEM ANHYDROUS],0.094 µg/mL,> 32 µg/mL
C[C@@H](O)[C@H]1C(=O)N2C(C(=O)O)=C(S[C@@H]3CN[C@H](C(=O)N(C)C)C3)[C@H](C)[C@H]12 [MEROPENEM],0.25 µg/mL,> 32 µg/mL
